According to US20260356841A1, “HETEROCYCLIC PYRIDINONE COMPOUNDS AS TRIGGERING RECEPTOR EXPRESSED ON MYELOID CELLS 2 AGONISTS AND METHODS OF USE” (Vigil Neuroscience, Inc., priority 2023, published 2026):

biological target: T1, human TREM2 (Homo sapiens, UniProt Q9NZC2); assay: TREM2 agonist potency by cellular phosphorylation of Spleen Tyrosine Kinase (Syk), AlphaLisa, HEK293T-hTREM2 cells; type: cell-based; conditions: hTREM2 EC50 Data (HEK293 Cells); Syk phosphorylation, AlphaLisa; read-out: hTREM2 EC50
T1 construct: expressed in transfected cells; host or cells: HEK293T (HEK293T-hTREM2 cells)
How it was run: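 HEK293T cells co-expressing human TREM2 and DAP12, plated 20–24 h before use. Compounds applied 45 min at room temperature in assay buffer, then cells lysed and phospho-Syk quantified by AlphaLisa. Percent activation from a standard curve; EC50 from a four-parameter variable-slope fit.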

T1 sequence (Q9NZC2 19-230): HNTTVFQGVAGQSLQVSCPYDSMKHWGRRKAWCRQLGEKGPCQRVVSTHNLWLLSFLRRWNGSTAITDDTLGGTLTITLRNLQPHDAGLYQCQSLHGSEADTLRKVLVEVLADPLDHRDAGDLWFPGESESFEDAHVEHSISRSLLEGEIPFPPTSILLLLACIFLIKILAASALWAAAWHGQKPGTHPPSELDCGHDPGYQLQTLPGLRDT
T1 sequence (O43914 22-113 partner): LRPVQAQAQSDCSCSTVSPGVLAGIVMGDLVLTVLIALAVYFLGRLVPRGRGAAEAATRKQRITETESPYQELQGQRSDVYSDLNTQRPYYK

`Cc1nc2nc([C@H]3CCO[C@@H](c4ccc(=O)n(C)c4)C3)nc(C34CCC(C(C)(F)F)(CC3)C4)c2nc1C` [Example 60, 5-((2R,4S)-4-(4-(4-(1,1-difluoroethyl)bicyclo[2.2.1]heptan-1-yl)-6,7-dimethylpteridin-2-yl)tetrahydro-2H-pyran-2-yl)-1-methylpyridin-2(1H)-one] and `Cc1nc2nc([C@H]3CCO[C@@H](c4ccc(=O)n(C)c4)C3)nc(C34CC(C(C)(F)F)(C3)C4)c2nc1C` [Example 38, 5-[(2R,4S)-4-[4-[3-(1,1-difluoroethyl)-1-bicyclo[1.1.1]pentanyl]-6,7-dimethyl-pteridin-2-yl]tetrahydropyran-2-yl]-1-methyl-pyridin-2-one] cannot be ordered by EC50: under 100 nM for the first, under 100 nM for the second.

First: Cc1nc2nc([C@@H]3CCO[C@H](c4ccc(=O)n(C)c4)C3)nc(C34CC(C(F)F)(C3)C4)c2nc1C [Example 32, 5-[(2S,4R)-4-[4-[3-(difluoromethyl)-1-bicyclo[1.1.1]-pentanyl]-6,7-dimethyl-pteridin-2-yl]tetrahydropyran-2-yl]-1-methyl-pyridin-2-one]
Second: Cc1nc2nc([C@@H]3CCO[C@H](c4ccc(=O)n(C)c4)C3)nc(C34CC(C(F)(F)F)(C3)C4)c2nc1C [Example 26, 5-[(2S,4R)-4-[6,7-dimethyl-4-[3-(trifluoromethyl)-1-bicyclo[1.1.1]-pentanyl]pteridin-2-yl]tetrahydropyran-2-yl]-1-methyl-pyridin-2-one]
The EC50 of the first is higher: 100 to 500 nM for the first, under 100 nM for the second.

`Cc1nc2nc([C@H]3CCO[C@@H](c4ccc(=O)n(C(C)C)c4)C3)nc(C34CC(C(F)(F)F)(C3)C4)c2nc1C` [Example 77, 1-isopropyl-5-[(2R,4S)-4-[6,7-dimethyl-4-[3-(trifluoromethyl)-1-bicyclo[1.1.1]-pentanyl]pteridin-2-yl]tetrahydropyran-2-yl]pyridin-2-one] and `Cc1nc2nc([C@H]3CCO[C@@H](c4ccc(=O)n(C(F)F)c4)C3)nc(C34CC(C(F)(F)F)(C3)C4)c2nc1C` [Example 90] cannot be ordered by EC50: under 100 nM for the first, under 100 nM for the second.

Compared with `COc1nc2c(-c3ccc(C(F)(F)F)cc3F)nc([C@@H]3CCO[C@H](c4ccc(=O)n(C)c4)C3)nc2nc1C` [Example 130, 1-methyl-5-[(2S,4R)-4-[4-[2-fluoro-4-(trifluoromethyl)phenyl]-6-methoxy-7-methyl-pteridin-2-yl]tetrahydropyran-2-yl]pyridin-2-one], `Cc1nc2nc([C@@H]3CCO[C@H](c4ccc(=O)n(C)c4)C3)nc(-c3ccc(F)cc3F)c2nc1C` [Example 2, 5-[(2S,4R)-4-[4-(2,4-difluorophenyl)-6,7-dimethyl-pteridin-2-yl]tetrahydropyran-2-yl]-1-methyl-pyridin-2-one] is higher in EC50: under 100 nM for the first, over 500 nM for the second. The first is the more potent here.

Compared with `Cc1cnc2c(C34CC(C(F)(F)F)(C3)C4)nc([C@@H]3CCO[C@H](c4ccc(=O)n(C)c4)C3)nc2n1` [Example 124, 1-methyl-5-((2S,4R)-4-(7-methyl-4-(3-(trifluoromethyl)bicyclo[1.1.1]pentan-1-yl)pteridin-2-yl)tetrahydro-2H-pyran-2-yl)pyridin-2(1H)-one], `Cc1nc2nc([C@H]3CCO[C@@H](c4ccc(=O)n(C)c4)C3)nc(C34CC(C(F)(F)F)(C3)C4)c2cc1C(F)(F)F` [Example 326, 1-methyl-5-[(2R,4S)-4-[7-methyl-6-(trifluoromethyl)-4-[3-(trifluoromethyl)-1-bicyclo[1.1.1]pentanyl]pyrido[2,3-d]pyrimidin-2-yl]tetrahydropyran-2-yl]pyridin-2-one] is lower in EC50: 100 to 500 nM for the first, under 100 nM for the second.

`Cc1nc2nc([C@H]3CCO[C@@H](c4ccc(=O)n(N(C)C)c4)C3)nc(C34CC(C(F)(F)F)(C3)C4)c2nc1C` [Example 178, 1-(dimethylamino)-5-[(2R,4S)-4-[6,7-dimethyl-4-[3-(trifluoromethyl)-1-bicyclo[1.1.1]pentanyl]pteridin-2-yl]tetrahydropyran-2-yl]pyridin-2-one] and `Cc1cc(-n2cc([C@H]3CC(c4nc(C56CC(C(F)(F)F)(C5)C6)c5nc(C)c(C)nc5n4)CCO3)ccc2=O)cs1` (stereo partly drawn) [Example 104, 5-((2R)-4-(6,7-dimethyl-4-(3-(trifluoromethyl)bicyclo-[1.1.1]pentan-1-yl)pteridin-2-yl)tetrahydro-2H-pyran-2-yl)-1-(5-methylthiophen-3-yl)pyridin-2 (1H)-one] cannot be ordered by EC50: under 100 nM for the first, under 100 nM for the second.

`C[C@@H]1CN(c2nc(-c3ccc(F)cc3F)c3sc(N(C)C)nc3n2)C[C@H](c2ccc(=O)n(C)c2)O1` [Example 176, 5-[(2S,6R)-4-[7-(2,4-difluorophenyl)-2-(dimethylamino)thiazolo[4,5-d]pyrimidin-5-yl]-6-methyl-morpholin-2-yl]-1-methyl-pyridin-2-one] and `Cc1cc2c(-c3ccc(F)cc3F)nc(N3C[C@@H](C)O[C@@H](c4ccc(=O)n(N)c4)C3)cc2nc1C` [Example 193, 1-amino-5-[(2S,6R)-4-[5-(2,4-difluorophenyl)-2,3-dimethyl-1,6-naphthyridin-7-yl]-6-methyl-morpholin-2-yl]pyridin-2-one] cannot be ordered by EC50: under 100 nM for the first, under 100 nM for the second.

`Cc1nc2nc([C@@H]3CCO[C@@H](c4ccc(=O)n(C)c4)C3)cc(C34CC(C(F)(F)F)(C3)C4)c2nc1C` [Example 169, 1-methyl-5-[(2R,4R)-4-[2,3-dimethyl-8-[3-(trifluoromethyl)-1-bicyclo-[1.1.1]pentanyl]pyrido[2,3-b]pyrazin-6-yl]tetrahydropyran-2-yl]pyridin-2-one] and `Cc1nc2nc([C@H]3C[C@@H](C)O[C@@H](c4ccc(=O)n(C5CC5)c4)C3)nc(C34CC(C(F)(F)F)(C3)C4)c2nc1C` [Example 102, 1-cyclopropyl-5-[(2R,4S,6R)-4-[6,7-dimethyl-4-[3-(trifluoromethyl)-1-bicyclo[1.1.1]pentanyl]pteridin-2-yl]-6-methyl-tetrahydropyran-2-yl]pyridin-2-one] cannot be ordered by EC50: under 100 nM for the first, under 100 nM for the second.

First: Cc1nc2nc([C@@H]3CCO[C@H](c4ccc(=O)n(C)c4)C3)nc(-c3ccc(C(F)(F)F)c(F)c3F)c2nc1C [Example 19]
Second: Cc1nc2nc([C@@H]3CCO[C@H](c4ccc(=O)n(C)c4)C3)nc(C3CCC(F)(F)CC3)c2nc1C [Example 29, 5-((2S,4R)-4-(4-(4,4-difluorocyclohexyl)-6,7-dimethylpteridin-2-yl)tetrahydro-2H-pyran-2-yl)-1-methylpyridin-2 (1H)-one]
The EC50 of the first is lower: under 100 nM for the first, 100 to 500 nM for the second. The first is the more potent here.

First: Cc1nc2nc(N3C[C@@H](C)O[C@@H](c4ccc(=O)n(N)c4)C3)nc(C34CC(C(F)(F)F)(C3)C4)c2nc1C1COC1 [Example 185, 1-amino-5-[(2S,6R)-6-methyl-4-[7-methyl-6-(oxetan-3-yl)-4-[3-(trifluoromethyl)-1-bicyclo[1.1.1]pentanyl]pteridin-2-yl]morpholin-2-yl]pyridin-2-one]
Second: [2H]C([2H])([2H])n1cc([C@H]2C[C@@H](c3nc(C45CC(C(F)(F)F)(C4)C5)c4nc(OC)c(C)nc4n3)CCO2)cc(C)c1=O [Example 149, 5-[(2R,4S)-4-[6-methoxy-7-methyl-4-[3-(trifluoromethyl)-1-bicyclo-[1.1.1]pentanyl]pteridin-2-yl]tetrahydropyran-2-yl]-3-methyl-1-(trideuteriomethyl)-pyridin-2-one]
The EC50 of the first is higher: 100 to 500 nM for the first, under 100 nM for the second.

`Cc1nc2nc(N3CCC(F)(F)C(c4ccc(=O)[nH]c4)C3)nc(-c3ccc(F)cc3F)c2nc1C` (stereo not shown) [Example 189, 5-[1-[4-(2,4-difluorophenyl)-6,7-dimethyl-pteridin-2-yl]-4,4-difluoro-3-piperidyl]-1H-pyridin-2-one] and `[2H]C([2H])([2H])n1cc([C@H]2C[C@@H](c3nc(C45CC(C(F)(F)F)(C4)C5)c4cc(C(F)(F)F)c(C)nc4n3)CCO2)ccc1=O` [Example 334, 1-(methyl-d3)-5-((2R,4S)-4-(7-methyl-6-(trifluoromethyl)-4-(3-(trifluoromethyl)bicyclo[1.1.1]pentan-1-yl)pyrido[2,3-d]pyrimidin-2-yl)tetrahydro-2H-pyran-2-yl)pyridin-2(1H)-one] cannot be ordered by EC50: under 100 nM for the first, under 100 nM for the second.
